Paper PMC4298791 (Angewandte Chemie (International Ed. in English), 2014)
Where two headings read alike, the source gives them in different places. One block for each molecule: values may come before it.

Assays:
CREBBP bromodomain [1] = target: T1, CREBBP bromodomain (Homo sapiens, UniProt Q92793); assay: AlphaScreen peptide displacement assay; type: binding
T1 construct: amplify the bromodomain region of the; made in house
Method: AlphaScreen Peptide Displacement Assay: Bromodomain AlphaScreen assays were carried out as
previously described.11,34 All experiments were carried out in duplicate and, within a table, on the same plate. […]

BRD4(1) = BRD4(1) (Homo sapiens, UniProt O60885); assay: Isothermal titration calorimetry (ITC); type: binding; conditions: 15 °C
Method: (§1) Isothermal Titration Calorimetry (ITC): Experiments were carried out on a VP-ITC titration microcalorimeter from MicroCal™ , LLC (Northampton, MA) with a cell volume of 1.4189 ml and a 250 µl microsyringe equipped with a ThermoVac module.
(§2) The microsyringe was loaded with a solution of the protein sample (200-500 µM protein in ITC buffer) and was carefully inserted into the calorimetric cell which was filled with an amount of the ligand ([…], 20-30 µM in ITC buffer). The system […]
(§3) applied. All titrations were conducted using an initial control injection of 2 µl followed by up to 34 identical injections of 8 µl with a duration of 4 sec per injection and a spacing of 250 sec between injections. The titration experiments were designed in such a fashion, as to ensure complete saturation of the enzymes before […]
(§4) corrected for protein heats of dilution (measured on separate experiments by titrating the proteins into ITC buffer) and deconvoluted using the MicroCal™ Origin software supplied with the instrument to yield enthalpies of binding (∆H) and binding constants (KB) in the same fashion to that previously described in detail by Wiseman and coworkers.35 Thermodynamic parameters were calculated using the basic equation of thermodynamics (∆G = ∆H − T∆S = −RTlnKB, where ∆G, ∆H and ∆S are the changes in free energy, enthalpy […]
(§5) and entropy of binding respectively).
(§6) MicroCal™ Origin software package.

CREBBP bromodomain [2] = target: T1, CREBBP bromodomain; assay: Isothermal titration calorimetry (ITC); type: binding; conditions: 15 °C
Method: as §1, §2, §3, §4, §5, §6

CREBBP = target: T2, CREBBP (Homo sapiens, UniProt Q92793); assay: Differential scanning fluorimetry (ΔTm); type: binding; conditions: DSF; protein 2 µM, compound 10 µM
T2 construct: amplify the bromodomain region of the; made in house
T2 sequence (Q92793 1085-1192 limits assumed): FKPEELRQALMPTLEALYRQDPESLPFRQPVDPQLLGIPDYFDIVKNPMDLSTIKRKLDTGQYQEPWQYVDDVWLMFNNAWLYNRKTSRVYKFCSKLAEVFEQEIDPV

[3] = tested on: GFP chimerized to multimerized CREBBP bromodomains in U2OS cells; assay: Fluorescence recovery after photobleaching (FRAP) assay; type: cell-based
Method: To determine the utility of (R)-2 in a cellular setting a FRAP assay was conducted.
The bleached area is indicated by a red circle. B) Half times of fluorescence recovery (t1/2) of U2OS cells expressing green fluorescent protein (GFP) chimerized to multimerized CREBBP bromodomains with or without 2.5 μM SAHA (indicated by †).
CREBBP bromodomain from chromatin. A) Time dependence of fluorescent recovery in the bleached area of U2OS cells expressing GFP chimerised to multimerised CREBBP bromodomains. Curves represent the means at each time point of 15 cells in each group (see Figure 3A for representative images of cell nuclei). B) Half times of fluorescence recovery (t½) of cells expressing GFP chimerised to multimerised CREBBP bromodomains. Bars represent the mean t½ calculated from individual recovery curves of 15 cells per group. * […]
as §5
MicroCal™ Origin software package. […]
crystallization robot (TTP Labtech, Royston UK).
50+100 nl). […] All crystallizations were carried out […]
followed by manual building in COOT42.

BAZ2B = target: T3, BAZ2B (Homo sapiens, UniProt Q9UIF8); assay: Differential scanning fluorimetry (ΔTm); conditions: read-out: ΔTm BAZ2B
T3 sequence (Q9UIF8 2060-2164 limits assumed): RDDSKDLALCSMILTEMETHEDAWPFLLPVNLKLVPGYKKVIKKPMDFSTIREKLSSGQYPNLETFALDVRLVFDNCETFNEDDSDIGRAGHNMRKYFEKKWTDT

BRD9 = target: T4, BRD9 (Homo sapiens, UniProt Q9H8M2); assay: Differential scanning fluorimetry (ΔTm); conditions: read-out: ΔTm BRD9
T4 sequence (Q9H8M2 136-240 limits assumed): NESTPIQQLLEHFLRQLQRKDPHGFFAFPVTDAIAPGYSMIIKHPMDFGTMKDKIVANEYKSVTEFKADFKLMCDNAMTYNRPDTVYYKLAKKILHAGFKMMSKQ

BRPF3 = target: T5, BRPF3 (Homo sapiens, UniProt Q9ULD4); assay: Differential scanning fluorimetry (ΔTm); conditions: read-out: ΔTm BRPF3
T5 sequence (Q9ULD4 589-693 limits assumed): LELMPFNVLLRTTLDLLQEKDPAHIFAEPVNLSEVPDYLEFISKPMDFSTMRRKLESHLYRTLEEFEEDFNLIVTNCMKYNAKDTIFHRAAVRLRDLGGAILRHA

LOC93349A = LOC93349A (Homo sapiens, UniProt Q9H930); assay: Differential scanning fluorimetry (ΔTm); conditions: read-out: ΔTm LOC93349A
LOC93349A, sequence (Q9H930 467-570 limits assumed): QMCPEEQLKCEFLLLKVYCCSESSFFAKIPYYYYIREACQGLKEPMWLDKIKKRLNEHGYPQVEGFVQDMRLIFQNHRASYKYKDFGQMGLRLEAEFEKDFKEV
Method: (§7) Differential Scanning Fluorimetry: Bromodomain ΔTm assay was performed as reported previously,34 with protein at a final concentration of 2 µM and compound at 10 µM.

PB1(1) = PB1(1) (Homo sapiens, UniProt Q86U86); assay: Differential scanning fluorimetry (ΔTm); conditions: read-out: ΔTm PB1(1)
PB1(1), sequence (Q86U86 41-151 limits assumed): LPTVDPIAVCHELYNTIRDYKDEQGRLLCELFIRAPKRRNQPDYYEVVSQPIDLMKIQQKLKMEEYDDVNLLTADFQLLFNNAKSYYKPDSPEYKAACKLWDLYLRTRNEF
Method: as §7

PCAF = target: T6, PCAF (Homo sapiens, UniProt Q92831); assay: Differential scanning fluorimetry (ΔTm); conditions: read-out: ΔTm PCAF
T6 sequence (Q92831 723-827 limits assumed): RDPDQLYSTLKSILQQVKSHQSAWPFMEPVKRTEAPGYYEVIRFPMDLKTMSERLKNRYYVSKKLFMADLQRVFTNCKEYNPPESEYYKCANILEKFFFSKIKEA

TIF1α = target: T7, TIF1α (Homo sapiens, UniProt O15164); assay: Differential scanning fluorimetry (ΔTm); conditions: read-out: ΔTm TIF1α
T7 sequence (O15164 899-1004 limits assumed): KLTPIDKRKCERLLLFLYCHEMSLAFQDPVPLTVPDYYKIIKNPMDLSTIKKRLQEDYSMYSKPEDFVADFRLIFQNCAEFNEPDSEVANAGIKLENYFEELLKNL

CREBBP bromodomain [4] = target: T1, CREBBP bromodomain; design: method as in PMID 21804994, PMID 21851057; conditions: cited from earlier work
[5] = peptide and protein concentration = 25 nM, range in parentheses, read-out: IC50/nM vs CREBBP

T1 sequence (Q92793 1085-1192 limits assumed): as the sequence (Q92793 1085-1192 limits assumed) above

SMILES: C[C@H]1Nc2c(cccc2C(=O)NCCCN2CCCc3ccccc32)NC1=O [(R)-1]
IC50 (CREBBP bromodomain [1]; [5]): 758 nM
IC50 (CREBBP bromodomain [1]; read-out: CREBBP IC50): 760 nM

SMILES: COc1ccc2c(c1)N(CCCNC(=O)c1cccc3c1N[C@H](C)C(=O)N3)CCC2 [(R)-2]
−TΔS of binding to BRD4 (BRD4(1)): -1.36 kcal/mol
ΔH of binding to BRD4 (BRD4(1); error = error in fitting): -6.42 ± 0.12 kcal/mol
TΔS of binding to CREBBP (CREBBP bromodomain [2]): -2.40 kcal/mol
ΔH of binding to CREBBP (CREBBP bromodomain [2]; error = error in fitting): -6.12 ± 0.04 kcal/mol
ΔTm at 10 µM (CREBBP): 5.4 °C
half time of fluorescence recovery (t1/2) compared to wild-type cells ([3]; 1, 5, 10 µM (R)-2 in presence of 2.5 μM SAHA): dose-dependently reduced
displacement of CREBBP bromodomain from chromatin (FRAP) ([3]; 1, 5, 10 µM, with 2.5 μM SAHA): can displace the CREBBP bromodomain from chromatin
ΔTm at 10 µM (BAZ2B): < 0.5 °C
ΔTm at 10 µM (BRD9): < 1.1 °C
ΔTm at 10 µM (BRPF3): 0.5 °C
ΔTm at 10 µM (LOC93349A): 0.3 °C
ΔTm at 10 µM (PB1(1)): < 0.1 °C
ΔTm at 10 µM (PCAF): 0 °C
ΔTm at 10 µM (TIF1α): 0.7 °C

SMILES: C[C@H]1Nc2c(cccc2C(=O)NCCCN2CCOc3ccccc32)NC1=O [(R)-5]
IC50 (CREBBP bromodomain [1]; [5]): 549 nM

SMILES: COc1ccc2c(c1)CCCN2CCCNC(=O)c1cccc2c1N[C@H](C)C(=O)N2 [(R)-6]
IC50 (CREBBP bromodomain [1]; [5]): 1410 nM

SMILES: CN1CCCC1=O [N-methyl-2-pyrrolidone (NMP), N-methyl-2-pyrrolidone]
IC50 (CREBBP bromodomain [4]; AlphaScreen): 1900 µM
ligand efficiency (CREBBP bromodomain [4]; from AlphaScreen IC50 vs CREBBP bromodomain): 0.54

Other lines, results leading:

IC50 (CREBBP bromodomain [1]; [5]): 1530 nM
SMILES: COc1ccc2c(c1)N(CCCNC(=O)c1cc(F)cc3c1N[C@H](C)C(=O)N3)CCC2 [(R)-7]

IC50 (CREBBP bromodomain [1]; [5]): 2550 nM
SMILES: COc1ccc2c(c1)N(CCCNC(=O)c1c(F)ccc3c1N[C@H](C)C(=O)N3)CCC2 [(R)-8]

IC50 (CREBBP bromodomain [1]; [5]): 6870 nM
SMILES: C[C@@H]1Nc2c(cccc2C(=O)NCCCN2CCCc3ccccc32)NC1=O [(S)-1]

IC50 (CREBBP bromodomain [1]; read-out: CREBBP IC50): 77000 nM
SMILES: CC1Oc2c(cccc2C(=O)NCCN2CCc3ccccc32)NC1=O (stereo not shown) [compound 3]

IC50 (CREBBP bromodomain [1]; read-out: CREBBP IC50): 51000 nM
SMILES: CC1Oc2c(cccc2C(=O)NCCCN2CCCc3ccccc32)NC1=O (stereo not shown) [compound 4]
